Common to all, as to type: cell-based
Assay [1] has as its system drug-resistant Escherichia coli 1864. The assay can be described thus: MIC of antibiotics against drug-resistant Escherichia coli II (resistance profile of the strain). The text has this:
(§1) 1 strain of drug-resistant Escherichia coli II, namely drug-resistant Escherichia coli 1864, is provided by the School of Pharmacy of Fudan University. This strain is resistant to fluoroquinolone antibiotics (such as levofloxacin), non-fluoroquinolone antibiotics (such as nalidixic acid, nemofloxacin), aminoglycoside antibiotics (such as gentamicin), glycopeptide antibiotics (such as vancomycin) and carbapenem antibiotics (such as meropenem).

In assay [2] the test system is drug-resistant Escherichia coli I (a strain resistant to carbapenem antibiotics). Briefly: Chessboard microbroth dilution MIC/FIC, compound A in combination with meropenem. The settings on record: for MIC: Escherichia coli, read-out: Compound A MIC alone; for Compound A MIC in combination: with meropenem. The text has this:
(§2) This experiment is designed to determine the minimum inhibitory concentration (MIC) of compound A in combination with meropenem against drug-resistant Escherichia coli I (a strain resistant to carbapenem antibiotics) and drug-resistant Escherichia coli II (a strain resistant to fluoroquinolone antibiotics, non-fluoroquinolone antibiotics, aminoglycoside antibiotics, glycopeptide antibiotics and carbapenem antibiotics), and to calculate the fractional inhibitory concentration (FIC) index.
3 strains of drug-resistant Escherichia coli I, namely drug-resistant Escherichia coli 18-W09-093, drug-resistant Escherichia coli 18-W37-025, and drug-resistant Escherichia coli 18-W37-032, are provided by Shanghai Junji Medical Laboratory Co., Ltd. These 3 strains are all resistant to carbapenem antibiotics (e.g., meropenem).
(§3) According to the recommendation of the Clinical and Laboratory Standards Institute (CLSI), the microbroth dilution method designed by the chessboard method was used to determine the minimum inhibitory concentration (MIC) of compound A in combination with meropenem against the above strains, and the fractional inhibitory concentration (FIC) index was calculated.
(§4) Compound A was dissolved in dimethyl sulfoxide to obtain a stock solution I with a concentration of 1280 mg/L. The stock solution I was diluted to 512 mg/L with sterile water to obtain a gradient dilution first tube solution I. The gradient dilution first tube solution I was subjected to 1:1 gradient dilution with sterile water to obtain a working solution I with a gradient range of 512 to 0.25 mg/L.
(§5) Meropenem was dissolved in sterile water to obtain a stock solution II with a concentration of 5120 mg/L. The stock solution II was diluted to 1024 mg/L with sterile water to obtain a gradient dilution first tube solution II. The gradient dilution first tube solution II was subjected to 1:1 gradient dilution with sterile water to obtain a working solution II with a gradient range of 1024 to 0.5 mg/L.
(§6) According to the method in Example 1, a drug sensitive plate was prepared with working solution I and working solution II, and the specific process will not be repeated here.
(§7) (2) The culture medium of the bacterial solution: Cation-Adjusted Mueller-Hinton Broth (CAMHB), a product of BBL, USA, batch number 9015952.
(§8) (3) Formulation method of bacterial solution: According to the direct colony suspension method, the test bacteria cultured overnight were prepared into a 0.5 McFarland turbidity tube using physiological saline. Then, the resulting solution was dilute 100 times with the above culture medium. 100 μL of the resulting bacterial solution was mixed well with the solution (100 μL) in each well of the drug sensitivity plate, and the final inoculation amount was 10^5 CFU/mL.
(§9) (4) Culture conditions: Culturing at 35±2° C. for 20 hours in air.
(§10) (1) The experimental results were determined according to the standard of CLSI 2019 M100 29th edition.
(§11) wherein: FIC≤0.5 indicates synergistic effect; 0.5<FIC≤1.0 indicates additive effect; 1<FIC≤2.0 indicates irrelevant effect; and FIC>2 indicates antagonistic effect.
A general note: Broth dilution looks for growth in wells or tubes with falling amounts of substance.

The test system of assay [3] is carbapenem-resistant Acinetobacter baumannii. The description is as above. The settings on record: for MIC: Acinetobacter baumannii, read-out: Compound A MIC alone; for Compound A MIC in combination: with meropenem.
Source text: This experiment is designed to determine the minimum inhibitory concentration (MIC) of compound A in combination with meropenem against carbapenem-resistant Acinetobacter baumannii and to calculate the fractional inhibitory concentration (FIC) index.
Test bacteria: 10 strains of carbapenem-resistant Acinetobacter baumannii are clinically isolated strains, and are provided by Shanghai Junji Medical Laboratory Co., Ltd.
as §3
Compound A was dissolved in dimethyl sulfoxide to obtain a stock solution I with a concentration of 51200 mg/L. The stock solution I was subjected to 1:1 gradient dilution with dimethyl sulfoxide to obtain a dilution solution with a concentration range of 51200 to 25 mg/L. The corresponding concentrations were added to sterile water for 100-fold dilution to obtain working solution I with a concentration range of 512 to 0.25 mg/L.
Meropenem was dissolved in sterile water to obtain a stock solution with a concentration of 5120 mg/L. The […] stock solution was subjected to 1:1 gradient dilution with sterile water to obtain a working solution II with a concentration range of 512 to 0.25 mg/L.
as §6, §7, §8, §9
(1) The experimental results were determined according to the standard of CLSI 2020 M100 30th edition.
as §11

The subject of assay [4] is drug-resistant Escherichia coli II (drug-resistant Escherichia coli 1864). The description is as above.
Source text: as §2, §1, §3, §4, §5, §6, §7, §8, §9, §10, §11

Where [5] appears, read: drug-resistant Escherichia coli 1864, read-out: MIC.
Where [6] appears, read: strain 18-W09-093, compound A + meropenem.
Where [7] appears, read: strain 18-W37-025, compound A + meropenem.
[8] abbreviates: strain 18-W37-032, compound A + meropenem.
[9] abbreviates: strain No. 1, compound A + meropenem.
The mark [10] stands for this setting: strain No. 2, compound A + meropenem.
[11] abbreviates: strain No. 3, compound A + meropenem.
Setting [12] is: strain No. 4, compound A + meropenem.
Setting [13] is: strain No. 5, compound A + meropenem.
The mark [14] stands for this setting: strain No. 6, compound A + meropenem.
The mark [15] stands for this setting: strain No. 7, compound A + meropenem.
[16] abbreviates: strain No. 8, compound A + meropenem.
The mark [17] stands for this setting: strain No. 9, compound A + meropenem.
Where [18] appears, read: strain No. 10, compound A + meropenem.
The mark [19] stands for this setting: strain 1864, compound A + meropenem.

Where two headings read alike, the source gives them in different places. A value given as a limit tells only on which side of the number the result lay.

For orientation: MIC means the lowest concentration found to suppress growth. On to `CN[C@H](CC(C)C)C(=O)N[C@H]1C(=O)N[C@@H](CC(N)=O)C(=O)N[C@H]2C(=O)N[C@H]3C(=O)N[C@H](C(=O)N[C@H](C(=O)O)c4cc(O)cc(O)c4-c4cc3ccc4O)[C@H](O)c3ccc(c(Cl)c3)Oc3cc2cc(c3O[C@@H]2O[C@H](CO)[C@@H](O)[C@H](O)[C@H]2O[C@H]2C[C@](C)(N)[C@H](O)[C@H](C)O2)Oc2ccc(cc2Cl)[C@H]1O` [Vancomycin], for which the minimum inhibitory concentration (MIC) in assay [1] (Escherichia coli) was more than 64 mg/L.

On to `CCn1cc(C(=O)O)c(=O)c2ccc(C)nc21` [Nalidixic acid], for which the MIC in assay [1] (Escherichia coli) is more than 64 mg/L.

With `C[C@H]1COc2c(N3CCN(C)CC3)c(F)cc3c(=O)c(C(=O)O)cn1c23` [Levofloxacin], in assay [1] (setting [5]), the MIC was determined as 32 mg/L.

As to `COc1c(N2C[C@@H](C)C[C@H](N)C2)ccc2c(=O)c(C(=O)O)cn(C3CC3)c12` [Nemofloxacin], in assay [1] (setting [5]), the MIC was more than 64 mg/L.

As to `O=[N+]([O-])c1cc(Cl)c2cccnc2c1O` [Compound A, 5-chloro-7-nitro-8-hydroxyquinoline], the minimum inhibitory concentration (MIC) in assay [2] (strain 18-W09-093) stood at 32 mg/L; in assay [2] (strain 18-W37-025), 32 mg/L; in assay [2] (strain 18-W37-032), 32 mg/L; in assay [3] (strain No. 1), 32 mg/L; in assay [3] (strain No. 2) it was 16 mg/L; in assay [3] (strain No. 3), 16 mg/L. The MIC in assay [3] (strain No. 4) was 16 mg/L; in assay [3] (strain No. 5), 16 mg/L; in assay [3] (strain No. 6), 16 mg/L; in assay [3] (strain No. 7) it was 16 mg/L; in assay [3] (strain No. 8) it was 8 mg/L; in assay [3] (strain No. 9), 8 mg/L. In addition, the MIC came to 16 mg/L in assay [3] (strain No. 10) and 4 mg/L in assay [4] (Escherichia coli, strain 1864, read-out: Compound A MIC alone). For the same compound, the “effect of the combination (summary of Table 4)” value is reported as “synergistic effect (FIC≤0.5 indicates synergistic effect)” in assay [2] (compound A + meropenem, drug-resistant Escherichia coli I) and “synergistic effect (FIC≤0.5 indicates synergistic effect)” in assay [4] (compound A + meropenem, drug-resistant Escherichia coli II). Also, the “change of the MIC of meropenem by the combination” value is given as “significantly reduce” in assay [2] (compound A + meropenem, drug-resistant Escherichia coli I and II); “significantly reduce” in assay [3] (compound A + meropenem). In addition, the FIC index in assay [2] (setting [6]) is on record as 0.258; in assay [2] (setting [7]), 0.258; in assay [2] (setting [8]), 0.281; in assay [3] (setting [9]), 0.127; in assay [3] (setting [10]), 0.129; in assay [3] (setting [11]) it was 0.129. The FIC index in assay [3] (setting [12]) is 0.129; in assay [3] (setting [13]) it was 0.129; in assay [3] (setting [14]), 0.129; in assay [3] (setting [15]), 0.254; in assay [3] (setting [16]), 0.133; in assay [3] (setting [17]), 0.133. For the same compound, the FIC index in assay [3] (setting [18]) amounted to 0.129; in assay [4] (setting [19]) it was 0.14. For the same compound, the Results result in assay [2] (setting [6]), in assay [2] (setting [7]), in assay [2] (setting [8]), in assay [3] (setting [9]), in assay [3] (setting [10]) and in assay [3] (setting [11]) was “Synergistic” in each case. The Results result in assay [3] (setting [12]), in assay [3] (setting [13]), in assay [3] (setting [14]), in assay [3] (setting [15]), in assay [3] (setting [16]) and in assay [3] (setting [17]) was “Synergistic” throughout. Also, the Results entry in assay [3] (setting [18]) and in assay [4] (setting [19]) was “Synergistic” in each case. Further, the “Compound A MIC in combination” value in assay [2] (strain 18-W09-093) came out at 8 mg/L; in assay [2] (strain 18-W37-025), 8 mg/L; in assay [2] (strain 18-W37-032), 8 mg/L; in assay [3] (strain No. 1), 0.06 mg/L; in assay [3] (strain No. 2) it was 0.06 mg/L; in assay [3] (strain No. 3), 0.06 mg/L. In addition, the “Compound A MIC in combination” value in assay [3] (strain No. 4), in assay [3] (strain No. 5), in assay [3] (strain No. 6), in assay [3] (strain No. 7), in assay [3] (strain No. 8) and in assay [3] (strain No. 9) was 0.06 mg/L each time. For the same compound, the “Compound A MIC in combination” value was 0.06 mg/L in assay [3] (strain No. 10) and 0.5 mg/L in assay [4] (strain 1864, with meropenem). Besides, the “effect of the combination (summary of Table 5)” value in assay [3] (compound A + meropenem) is “synergistic effect (FIC≤0.5 indicates synergistic effect)”.

For Gentamycin, in assay [1] (drug-resistant Escherichia coli 1864), the MIC was determined as 64 mg/L.

Source of the values: patent publication US20260240832A1, “USE OF NITROXOLINE COMPOUND IN ENHANCING EFFECT OF ANTIBACTERIAL AGENT” (Jiangsu Yahong Meditech Co., Ltd., priority 2022, published 2026).
